According to patent US11419953B2, “Reduced metastable complex macrocyclic contrast agents” (INVENTURE, LLC, priority 2020, dated 2022):

Assays:
[1] = cited from earlier work
[2] = commercial product stored in bottle; cited from earlier work
[3] = Free Gd3+ release in vitro, comparative data (Example 6); format: physicochemical; conditions: after 30 minutes at standard dosing

Structure (SMILES) | stability lower at pH 7.4 than for the fully deprotonated complex [1] | in-bottle measured free gadolinium [2] | In Vitro PPM (free GAD released) [3]
O=C([O-])CN1CCN(CC(=O)[O-])CCN(CC(=O)[O-])CCN(CC(=O)[O-])CC1.[Gd+3] [Gd-DOTA] | 7 orders of magnitude | 10^13 Gd3+ ions in 100 ml of GCA product | 
CNC[C@H](O)[C@@H](O)[C@H](O)[C@H](O)CO.O=C([O-])CN1CCN(CC(=O)[O-])CCN(CC(=O)O)CCN(CC(=O)[O-])CC1.[Gd+3] [DOTAREM, gadoterate meglumine] |  |  | 1,204 +/− 3.9 PPM
